Patent publication US5688789A, “PCP receptor ligands and the use thereof” (State of Oregon, acting by and through the Oregon State …, priority 1995, dated 1997)

Key:
rat hippocampal cells = experiment: In vitro neurotoxicity assay: protection against glutamate, Trypan Blue survival count (Example 7); assay type: cell-based; settings: glutamate 0-1000 uM, 1 uM glycine
Method: In the cytotoxicity studies, cultured mammalian neurons expressing EAA receptors are exposed in vitro to glutamate and the particular compound under investigation. The survival percentage of cells indicates the ability of the compound to protect against glutamate-induced neuronal death.
Dissociated rat hippocampal cultures were prepared using a modification of the method of Huettner and Baughman [Huettner, J. E. and Baugham, R. W., J. Neurosci. 6:3044-3060 (1986)]. The cortices were removed from 1-3 day post-natal rats (Sprague-Dawley) that had been anesthetized with chloral hydrate, and the hippocampi were dissected out and placed in Cl^- free dissociation medium supplemented with 1 mM kynurenic acid and 10 mM MgSO4 (Choi, D. W., J. Neurosci. 7:369-379 (1987)). The hippocampi were washed in the dissociation medium, then incubated for 2×20 minutes at 37° C. in dissociation medium containing 10 units/ml of Papain (Worthington). After the enzyme treatment, the tissue was incubated for three 5-minute periods at 37° C. with 10 mg/ml trypsin inhibitor (Sigma type II-0).
The cells were dissociated by trituration in growth medium and plated as 0.15 ml droplets of cell suspension onto the center of 35 mm Primaria (Falcon) dishes that had been stamped with a labeled 26×26 grid of approximately 0.64 cm^2 total area using a Mecanex BB form (WPI, New Haven, Conn.) and coated with poly-D-lysine and laminin (Collaborative Research). The cell density was between 2.5 and 4.0×10^5 cells per dish. The growth medium was Eagles minimum essential media (MEM, Earle's salts) supplemented with 5% fetal bovine serum (CCL), 5% defined supplemented calf serum (HyClone), 50 mM glucose, 50 units/ml penicillin/streptomycin and MITO+serum extender (Collaborative Research). The cells were maintained at 37° C. in a humidified 4.5% CO2 atmosphere. […]
Before treatment, sister cultures were examined under phase-contrast microscopy to ensure that the cultures were of a similar density. […] The cultures were washed three times and the surviving cells counted in the grid area using phase contrast microscopy. […]

[1] = tested on: NMDA receptor-ion channel complex; experiment: Whole-cell patch clamp: block of NMDA-induced currents on cultured rat hippocampal neurons (Example 6); assay type: cell-based; settings: rat hippocampal neurons, compared with MK-801
Method: In the electrophysiological studies the compounds are evaluated with respect to their ability to block the ion channel of the NMDA receptor channel complex and thereby inhibit Ca^2+ and Na^+ ion flow into the nerve cell. Initially, the ion channels are opened by activating the NMDA receptor. Ion flow is determined by measuring the passage of electrical current, i.e., a use-dependent decrease in electrical current indicates blocking of the ion channel due to binding of a ligand at a site within the channel.
Hippocampal neurons were obtained from the CA1 region of the hippocampus from 1-3 day-old-newborn rats (Long-Evans). Small blocks of tissue ([…]1mm^3) were incubated in papain (20 units ml^-1; Worthington-Cooper) for 30 minutes. The tissue was dissociated into a single cell suspension by trituration with a fire-polished Pasteur pipette in complete growth medium (Earle's MEM, 20 mM glucose, 50 units/ml penicillin/streptomycin, 5% heat-inactivated fetal calf serum, Serum Extender from Collaborative Research) containing 2.5 mg/ml bovine serum albumin and 2.5 mg/ml trypsin inhibitor (Sigma). The cells were plated onto glass coverslips coated with collagen/poly-D-lysine. Cultures were fed every 3 days by replacing haft the volume of medium. Arabinosylcytosine (5×10^-6 M) was added to the cultures for 1 or 2 days during the first week after plating to suppress the proliferation of non-neuronal cells.
All electrophysiology experiments were performed with the whole-cell mode of patch clamp recording [Hamill, O. D., Marty, A., Neher, E., Sakman, B., and Sigworth, F. J., Pflugers Arch. 391:85-100 (1981)] from neurons grown for 1-3 weeks in culture. Agonists and agonist/antagonist combinations were applied by a U-tube mol (Fenwick et al, J. Physiol. 331:577-597 (1982)) to neurons in whole-cell experiments. The external solution contained (in mM) NaCl 140, KCl 3.5, CaCl2 1, glucose 5, picrotoxinin 0.02, tetrodotoxin (TTX) 5×10^-4, and N-2-hydroxyethyl-piperazine-N'-2-ethanesulfonic acid (HEPES) 10. The pH of this solution was adjusted to 7.4 with NaOH. The internal (patch electrode) solution contained (mM) Cs-methanesulfonate 120, CsCl 10, ethyleneglycol-bis-(β-aminoethylether)-N,N,N',N'-tetraacetic acid (EGTA) 10, HEPES 10 (pH adjusted to 7.0 with CsOH). Membrane current was filtered at 4000 Hz (-3dB; 8-pole Bessel) and recorded on magnetic tape for later analysis. Experiments were performed at room temperature (20°-25° C.). [Sources of chemicals: N-methyl-D-aspartate, Cambridge Research Biochemicals; pirotoxinin, Sigma Chemical Company; salts for recording solutions, Aldrich (Gold Label) or Alfa (Puratronic). [^3 H]Kainate and [3H]CPP and [^3 H]AMPA were purchased from Dupont/NEN (Boston, Mass.)].
Repetitive applications (every 30 s) to the same cell produced currents which varied less than 5% over a period of at least 30 minutes.

PCP receptor [2] = experiment: PCP receptor binding against 3H-MK-801 (Example 5, Table 1); settings: vs. 3H-MK-801; ± sem (n)
Method: The PCP receptor binding properties of various compounds of the invention against ^3 H-5-methyl-10,11-dihydro-5H-dibenzo[a,d]cycloheptene-5,10-imine (^3 H-MK-801) were determined.

PCP receptor [3] = experiment: PCP receptor affinity of IDDC analogs vs. [3H]MK-801 in rat brain membrane (Example 10, Table 2); settings: read-out: PCP Receptor Affinity IC50 in Rat Brain Membrane vs. [3H]MK-801, MEAN
[4] = tested on: lesions caused by NMDA injection; experiment: In vivo neurotoxicity assay: protection against lesions caused by cerebral NMDA injection (Example 8); settings: about 0.30 to 60 μMol/kg, intraperitoneal, 15 minutes following cerebral NMDA injection
Text: In the in vivo neurotoxicity studies, the experimental model of McDonald, D. W., et al., (In: Sigma and Phencyclidine-like Compounds as Molecular Probes in Biology, Ed. Domino, E. F., and Kamenka, J.-M., pp. 697-707 (1988), NPP Books, Ann Arbor, Mich.) may be employed. In this model, NMDA injection into one cerebral hemisphere causes injury which resembles the lesion produced by hypoxia-ischemia. The ability of compounds to limit the NMDA-induced lesion is a measure of their neuroprotective properties; since the compounds may be administered intraperitoneally, the model can also provide information about a compound's ability to cross the blood-brain barrier.
The experimental model of McDonald, J. W., et al., supra, was employed with the single alteration in protocol of an intraperitoneal injection of the test compound 15 minutes following, rather than preceding, the cerebral NMDA injection.

Row | SMILES | cell survival compared to control (rat hippocampal cells; 10 uM) | use-dependent blockage of NMDA-induced (+glycine) responses [1] | IC50 (PCP receptor [2]) [nM] | IC50 (PCP receptor [3]) [nM] | cell survival compared to control (rat hippocampal cells; 5 uM) | protection against lesions caused by NMDA injection [4]
1 | CN1CC2c3ccccc3CC1c1ccccc12 (single isomer, unassigned) [N-methyl IDDC, N-methyl-10,5-(iminomethano)-10,11-dihydro-5H-dibenzo[a,d]cycloheptene] | enhanced cell survival when compared to control values | – | – | – | – | –
2 | c1ccc2c(c1)C[C@H]1NC[C@@H]2c2ccccc21 [(+)-IDDC, (+)-10(R),5(S)-(iminomethano)-10,11-dihydro-5H-dibenzo[a,d]cycloheptene] | – | very similar to the use dependent blocking action exhibited by MK-801 | 40 ± 5 | 40 | enhanced cell survival when compared to control values | protect against the lesions caused by NMDA injection
3 | c1ccc2c(c1)CC1NCC2c2ccccc21 (racemic) [(±)-IDDC, (±) 10,5-(iminomethano)-10,11-dihydro-5H-dibenzo[a,d]cycloheptene] | – | – | 41 ± 6 | 74.6 | enhanced cell survival when compared to control values | –
